Literature values, collected in US11466400B2, “Finish composition” (Hexcel Corporation, priority 2018, dated 2022).

pKa: 1.873
Compound: O=C(O)CNCC(=O)O [Iminodiacetic acid]
